# Test results taken from patent publication US11179381B2, “Intranasal administration of physiologically active substances” (DUTCH RENEWABLE ENERGY B.V., priority 2017, dated 2021).
# What was measured:
# [1] = Blood vitamin B12 after intranasal hydroxocobalmin, 500 μg dose (Access Vitamin B12 assay); conditions: from average increases of Tables 5 and 6 (500 μg dose, 5 wt. % nicotinamide)
# [2] = octanol/water partition coefficient; stated without a test; cited from earlier work
# [3] = Blood vitamin B12 after intranasal hydroxocobalmin, 75 μg dose (Access Vitamin B12 assay); conditions: from average increases of Tables 7 and 8 (75 μg dose, 5 wt. % nicotinamide)
# [4] = Blood erythropoietin after intranasal rh-Erythropoietin (Access EPO immunoassay); assay type: in vivo, human; conditions: from average increases of Tables 9 and 10 (5 wt. % nicotinamide)
# Description: As a control a composition comprising 400 μg rh-Erythropoietin was used.
# An immunoassay (Access erythropoietin (EPO), Beckman Coultier Inc.) was used to quantify the erythropoietin. Briefly, testing was performed on the Beckman Coulter DxI 800 (Beckman Coulter Inc.). […] The light production is directly proportional to the concentration of EPO in the sample. The amount of analyte in the sample was determined from a stored, multi-point calibration curve. (Instruction manual: Beckman Coulter Access EPO, Beckman Coulter Access Immunoassay Systems, Beckman Coulter, Inc, Fullerton Calif. 2009).
# [5] = Blood folate after intranasal spray (Access Folate immunoassay); assay type: in vivo, human; conditions: from average increases of Tables 3 and 4 (3.5 wt. % nicotinamide)
# Description: Briefly, a serum specimen was treated to release folate from endogenous binding proteins. After neutralization of the reaction mixture, folate-binding protein, mouse antifolate-binding protein, folic acid-alkaline phosphatase conjugate, and goat antimouse capture antibody coupled to paramagnetic particles were added to the reaction vessel. Folate in the sample competes with the folic acid-alkaline phosphatase conjugate for binding sites on a limited amount of folate-binding protein. Resulting complexes bind to the solid phase via mouse antifolate binding protein. […] The instrument used is a Beckman Coulter DXI 800.
Increase in absorption relative to control (absence of nicotinamide) [5],Molecule,Increase in absorption relative to control (absence of nicotinamide) [1],log P [2],Increase in absorption relative to control (absence of nicotinamide) [3],Increase in absorption relative to control (absence of nicotinamide) [4]
,"C/C1=C2/[N-][C@H]([C@H](CC(N)=O)[C@@]2(C)CCC(=O)NC[C@@H](C)OP(=O)([O-])O[C@H]2[C@@H](O)[C@@H](n3cnc4cc(C)c(C)cc43)O[C@@H]2CO)[C@]2(C)N=C(/C(C)=C3N=C(/C=C4N=C1[C@@H](CCC(N)=O)C\4(C)C)[C@@H](CCC(N)=O)[C@]\3(C)CC(N)=O)[C@@H](CCC(N)=O)[C@]2(C)CC(N)=O.[Co+3].[OH-] [Hydroxocobalamin, hydroxocobalamin]",203%,−0.9,192%,
,"Erythropoietin: rh-Erythropoietin, molecular weight 34000",,0,,300%
184%,"Nc1nc2ncc(CNc3ccc(C(=O)N[C@@H](CCC(=O)O)C(=O)O)cc3)nc2c(=O)[nH]1 [Folic acid, folic acid]",,−0.02,,
